Source: publication PMC10786919, “Design-rules for stapled peptides with in vivo activity and their application to Mdm2/X antagonists” (Nature Communications, 2024)
In brackets after ≈: the same amount, converted by molar mass. Where two headings read alike, the source gives them in different places. Positions of bridges follow the written chain, without caps; N, C: chain ends. Non-standard residues stand in square brackets, D forms with d. Residues, ends and D or L forms follow the SMILES beside them. Lys(N3) = [N-]=[N+]=NCCCC[C@H](N)C(=O)O; R8 = C=CCCCCCC[C@@](C)(N)C(=O)O; Cba = N[C@@H](CC1CCC1)C(=O)O; S5 = C=CCCC[C@](C)(N)C(=O)O; βAla = NCCC(=O)O

How the values were obtained:
[1] = Lactate dehydrogenase (LDH) release assay; assay type: cell-based; conditions: LDH: Cytotoxicity assay EC50
How it was run: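 Read-out was lactate dehydrogenase release, reflecting loss of membrane integrity, in reporter-engineered HCT116 cells (p53-responsive β-lactamase) seeded at 8000 cells per well. Final DMSO was 0.5%, and reported values are geometric means from three or more biological repeats.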

[2] = Solubility assay (kinetic solubility, PBS pH 7); assay type: physicochemical; conditions: for solubility kinetic: pH 7, aqueous buffer, kinetic from dmso stock, read-out: Solubility
How it was run: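 Next, measure peak areas of sample and standard. Finally, multiply their ratio by the standard concentration to obtain solubility (µM).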

Ca Ski cell line = conditions: 72 h
Procedure: (§1) The medium for CellSensor™ p53RE-bla HCT-116 cells was McCoy’s 5 A Medium (GIBCO16600-002) supplied with 10% FBS (Hyclone, SH30406.05), 100 U/100ug/ml of Pen/Strep (SolarBio, P1400) and 5 μg/ml of blasticidin (GIBCO, A11139). The medium for Ca Ski cells was RPMI1640 (Hyclone, SH3080901B) supplied with 10% FBS and 100 U/100ug/ml of Pen/Strep. All cells were kept in humidified incubators with 5% CO2 at 37 °C. Culture media was changed after one day of subculturing and cells were passed again when there was 70–80% confluence. One day before the assay, the cells were trypsinized, collected, counted and viability was determined. […] The plates were kept in humidified incubators with 5% CO2 at 37 °C overnight. Compounds were prepared as a 10 point, 3x serial dilution in 100% DMSO, starting from a top concentration of 10 mM. […] At the end of the incubation the assay plate was equilibrated at room temperature for approximately 30 minutes prior to the addition of 25 uL of CellTiter-Glo® 2.0 Reagent. The assay plate was mixed for 2 minutes on an orbital shaker to induce cell lysis. Next, the plate was incubated at room temperature for 10 minutes to stabilize the luminescent signal prior to recording the luminescence on a plate reader.

[3] = system: CellSensor p53RE-bla HCT-116 Cell Line; conditions: 72 h
Procedure: as §1

in vitro = conditions: Nanoclick permeability assay EC50
How it was run: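 Azido-peptide permeability was read as loss of NanoBRET signal (donor 450 nm, acceptor 610 nm) after adding NanoBret618-azide at 10 μM final.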

[4] = Experimental LogD (partition coefficient); conditions: for logD: not stated, Partition Coeff LogD

For `CC(=O)N[C@@H](CCCCN=[N+]=[N-])C(=O)NCCC(=O)N[C@@H](CC(C)C)C(=O)N[C@H](C(=O)N[C@@H](Cc1ccccc1)C(=O)N[C@]1(C)CCCCCCC=CCCC[C@@](C)(C(=O)N[C@@H](CO)C(=O)N[C@@H](C)C(=O)N[C@@H](C)C(N)=O)NC(=O)[C@H](CC2CCC2)NC(=O)[C@H](CCC(=O)O)NC(=O)[C@H](C)NC(=O)[C@H](Cc2c[nH]c3ccccc23)NC(=O)[C@H](Cc2ccc(O)cc2)NC(=O)[C@H](CCC(=O)O)NC1=O)[C@@H](C)O` [MP-181], the EC50 [1] was over 50 µM, the solubility kinetic ([2]; pH 7, PBS) was 179 µM (≈ 353 µg/mL) and the EC50 (Ca Ski cell line) was over 49.8 µM. The EC50 [3] was 4.64 µM, the cell entry EC50 (in vitro) was 0.304 µM and the EPSA (physchem) was 249 A^2. It also gave a logD [4] of 2.74.
With `CC(=O)N[C@@H](CCCCN=[N+]=[N-])C(=O)NCCC(=O)N[C@@H](CC(C)C)C(=O)N[C@H](C(=O)N[C@@H](Cc1ccccc1)C(=O)N[C@]1(C)CCCCCCC=CCCC[C@@](C)(C(=O)N[C@@H](CO)C(=O)N[C@@H](C)C(=O)N[C@@H](C)C(N)=O)NC(=O)[C@H](CC2CCC2)NC(=O)[C@H](CCC(N)=O)NC(=O)[C@H](Cc2c[nH]c3ccccc23)NC(=O)[C@H](Cc2c[nH]c3ccccc23)NC(=O)[C@H](Cc2ccc(O)cc2)NC(=O)[C@H](CCC(=O)O)NC1=O)[C@@H](C)O` [MP-186] (Ac-[Lys(N3)][βAla]LTF[R8]EYWWQ[Cba][S5]SAA-NH2; staple 6-13) the EC50 [1] was over 50 µM, the EC50 (Ca Ski cell line) was 21.5 µM and the EC50 [3] was 5.8 µM. The cell entry EC50 (in vitro) was 0.194 µM, the EPSA (physchem) was 238 A^2 and the logD [4] was 3.26.
With `CC(=O)N[C@@H](CCCCN=[N+]=[N-])C(=O)NCCC(=O)N[C@@H](CC(C)C)C(=O)N[C@H](C(=O)N[C@@H](Cc1ccccc1)C(=O)N[C@]1(C)CCCCCCC=CCCC[C@@](C)(C(=O)N[C@@H](CCCNC(=N)N)C(=O)N[C@@H](C)C(=O)N[C@@H](C)C(N)=O)NC(=O)[C@H](CC2CCC2)NC(=O)[C@H](CCC(N)=O)NC(=O)[C@H](C)NC(=O)[C@H](Cc2c[nH]c3ccccc23)NC(=O)[C@H](Cc2ccc(O)cc2)NC(=O)[C@H](CCC(=O)O)NC1=O)[C@@H](C)O` [MP-557] (Ac-[Lys(N3)][βAla]LTF[R8]EYWAQ[Cba][S5]RAA-NH2; staple 6-13) the EC50 [1] was over 50 µM, the Solubility ([2]; pH 7, PBS) was “Poorly Behaved” and the EC50 (Ca Ski cell line) was over 49.8 µM. It also gave an EC50 [3] of 2.04 µM, a cell entry EC50 (in vitro) of 0.136 µM and an EPSA (physchem) of 219 A^2. The “Partition Coeff LogD” value [4] was “Poorly Behaved”.
In the case of `CC(=O)N[C@@H](CCCCN=[N+]=[N-])C(=O)NCCC(=O)N[C@@H](CC(C)C)C(=O)N[C@H](C(=O)N[C@@H](Cc1ccccc1)C(=O)N[C@]1(C)CCCCCCC=CCCC[C@@](C)(C(=O)N[C@@H](C)C(=O)N[C@@H](C)C(=O)N[C@@H](C)C(N)=O)NC(=O)[C@H](CC2CCC2)NC(=O)[C@H](CCC(N)=O)NC(=O)[C@H](C)NC(=O)[C@H](Cc2c[nH]c3ccccc23)NC(=O)[C@H](Cc2ccc(O)cc2)NC(=O)[C@H](C)NC1=O)[C@@H](C)O` [MP-8965] (Ac-[Lys(N3)][βAla]LTF[R8]AYWAQ[Cba][S5]AAA-NH2; staple 6-13), the EC50 [1] is reported as over 50 µM, the Solubility [2] is reported as “P.B” and the Solubility ([2]; pH 7, PBS) is reported as “Poorly Behaved”. It also gave an EC50 (Ca Ski cell line) of over 49.8 µM, an EC50 [3] of 0.855 µM and a cell entry EC50 (in vitro) of 0.112 µM. For the same compound, the EPSA (physchem) was 205 A^2, the “Partition Coeff LogD” value [4] was “Poorly Behaved” and the “Partition Coeff LogD” value ([4]; experimental) was “P.B”.
For `CC(=O)N[C@@H](CCCCN=[N+]=[N-])C(=O)NCCC(=O)N[C@@H](CC(C)C)C(=O)N[C@H](C(=O)N[C@@H](Cc1ccccc1)C(=O)N[C@]1(C)CCCCCCC=CCCC[C@@](C)(C(=O)N[C@@H](CO)C(=O)N[C@@H](C)C(=O)N[C@@H](C)C(N)=O)NC(=O)[C@H](CC2CCC2)NC(=O)[C@H](CCC(N)=O)NC(=O)[C@H](CCCNC(=N)N)NC(=O)[C@H](Cc2c[nH]c3ccccc23)NC(=O)[C@H](Cc2ccc(O)cc2)NC(=O)[C@H](CCC(=O)O)NC1=O)[C@@H](C)O` [MP-555] (Ac-[Lys(N3)][βAla]LTF[R8]EYWRQ[Cba][S5]SAA-NH2; staple 6-13), the EC50 [1] was over 50 µM, the solubility kinetic ([2]; pH 7, PBS) was 2 µM (≈ 4.11 µg/mL) and the EC50 (Ca Ski cell line) was over 49.8 µM. The EC50 [3] was 6.25 µM, the cell entry EC50 (in vitro) was 0.249 µM and the EPSA (physchem) was 220 A^2. The logD [4] was 2.92.
